Experimental data reported in patent US20110182992A1, “PEPTIDES AND PEPTIDE MIMETICS TO TREAT PATHOLOGIES ASSOCIATED WITH EYE DISEASE” (priority 2008, published 2011).

Key:
ApoE null mice [1] = experiment: HDL function after D-4F and/or statin in the drinking water; type: in vivo, mouse; details: 0.05 mg/ml in the drinking water for 24 hours
C57Bl/6J-apoE null mice = experiment: Intravitreal L-4F: electron microscopy of Bruch's membrane of aged C57Bl/6J-apoE null mice; type: in vivo, mouse
Text: In every other RPE cell big lipid vacuoles (asterisks) are found, a sign of stress and beginning degeneration. PR: photo receptors; CC: choriocapillaris: EC: vascular endothelial cell of the choriocapillaris.
The membrane is slightly thickened with multiple translucent lipid vacuoles. A few are marked with asterisks. EC: vascular endothelial cell of choriocapillaris.
An effective clearance of this lipid debris via an ApoA-I mimetic peptide (L-4F) could prevent early AMD-like degeneration.
L-4F was injected directly into the vitreous cavity of right eyes of 10 eight month old C57Bl/6J-apoE null mice. A single dose of 3 μl was injected with a L-4F concentration of 400 μg/ml. All left eyes were untreated throughout the study and thus be served as controls. The animals were then sacrificed 21 days after the injection and the eyes were immediately enucleated and fixed. Eyes then were processed for electron microscopy (EM).

[2] = test system: mice fed an atherogenic diet; details: 20 μg daily injected; cited from earlier work
LDL receptor null mice = experiment: HDL protective capacity in LDL receptor null mice given peptide in drinking water; type: in vivo; details: 0.25 or 0.5 mg per ml of drinking water, 24 or 48 hrs, mouse HDL at 100 μg/ml
Description: FIG. 3 illustrates the effect of apo J peptide mimetics on HDL protective capacity in LDL receptor null mice. The values are the mean±SD of the number of migrated monocytes in 9 high power fields from each of quadruple assay wells.
D-4F designated as F, or the apoJ peptide made from D amino acids (D-J336, designated as J) was added to the drinking water of LDL receptor null mice (4 per group) at 0.25 or 0.5 mg per ml of drinking water. After 24- or 48-hrs blood was collected from the mice and their HDL was isolated and tested for its ability to protect against LDL-induced monocyte chemotactic activity. Assay controls included culture wells that received no lipoproteins (no addition), or control human LDL alone (designated as LDL, 200µg cholesterol/ml), or control LDL+ control human HDL (designated as +HDL, 350µg HDL cholesterol). For testing the mouse HDL, the control LDL was added together with mouse HDL (+F HDL or +J HDL) to artery wall cell cultures. The mouse HDL was added at 100 μg cholesterol/ml respectively.

ApoE null mice [3] = experiment: Protection against PAPC oxidation by HPODE and induction of monocyte chemotactic activity by HDL from apo E null mice given oral peptides; type: in vivo, mouse; details: added to the drinking water, 24 hrs; murine HDL 100 μg cholesterol/ml
Description: (§1) The values are the mean±SD of the number of migrated monocytes in 9 high power fields from each of quadruple assay wells. Asterisks indicate significant difference (p<0.05) as compared to No Peptide mHDL.
After 24 hrs blood was collected, plasma fractionated by FPLC and fractions containing HDL (designated as mHDL) were pooled and HDL protective capacity against PAPC oxidation as determined by the induction of monocyte chemotactic activity was determined. For the assay controls the culture wells received no lipoproteins (no additions), the phospholipid PAPC at 20µg/ml+HPODE, at 1.0 μg/ml, or PAPC+HPODE plus standard normal human HDL (at 350 μg HDL cholesterol/ml and designated as +Cont. h HDL).
For testing the murine HDL, PAPC+HPODE together with murine HDL (+F mHDL or +J mHDL) were added to artery wall cell cultures. […] The murine HDL was used at 100 μg cholesterol/ml.

[4] = test system: human aortic endothelial cells; experiment: Prevention of LDL-induced monocyte chemotactic activity, co-incubation; type: cell-based; details: co-incubation with control human LDL 200 μg protein/ml, overnight
ApoE null mice [5] = experiment: Ability of LDL from apoE null mice given oral peptides to induce monocyte chemotactic activity (LDL susceptibility to oxidation); type: in vivo, mouse; details: added to the drinking water, 24 hrs
Text: as §1, with “FIG. 5 illustrates the effect of oral apo A-1 peptide mimetic and apoJ peptide on LDL susceptibility to oxidation. The” for “The”, “LDL.” for “mHDL.”
FIG. 5 illustrates the effect of oral apo A-1 peptide mimetic and apoJ peptide on LDL susceptibility to oxidation. […] After 24 hrs blood was collected from the mice shown in FIG. 4, plasma fractionated by FPLC and fractions containing LDL (designated as mLDL for murine LDL) were pooled and LDL susceptibility to oxidation as determined by induction of monocyte chemotactic activity was determined. For the assay controls the culture wells received no lipoproteins (no additions), mLDL alone (at 200 μg cholesterol/ml), or mLDL+ standard normal human HDL (designated as Cont. h HDL, 350 μg HDL cholesterol).
Murine LDL, mLDL, from mice that received the D-4F (F mLDL) or those that received the apoJ peptide (J mLDL) were added to artery wall cell cultures.

PON1 = details: added to the drinking water, 24 hrs
Description: The values are the mean±SD of readings from quadruple plasma aliquots.
After 24 hrs blood was collected and plasma was assayed for PON1 activity.

[6] = test system: human aortic endothelial cells; experiment: Prevention of LDL-induced monocyte chemotactic activity by pre-treatment of artery wall cells; type: cell-based; details: 6 hrs pre-incubation with peptide, wash, then control human LDL 200 μg protein/ml overnight
Description: FIG. 2 illustrates the prevention of LDL-induced monocyte chemotactic activity by pre-treatment of artery wall cells with D-J336 as compared to D-4F. The data are mean±SD of the number of migrated monocytes in nine high power fields in quadruple cultures.
FIG. 2 illustrates a comparison of the effect of D-4F with the effect of D-J336 on the prevention of LDL induced monocyte chemotactic activity in a pre-incubation. Human aortic endothelial cells were pre-incubated with D-J336 or D-4F at 4, 2, and 1µg/ml for DJ336 or 100, 50, 25, and 12.5 μg/ml for D-4F for 6 hrs. The cultures were then washed and were incubated with medium alone (no addition), or with control human LDL (200 μg protein/ml), or with control human LDL+ control human HDL (350 μg HDL protein/ml) as assay controls. The wells that were pre-treated with peptides received the control human LDL at 200 μg protein/ml. Following overnight incubation, the supernatants were assayed for monocyte chemotactic activity.

ApoE null mice [7] = experiment: Protection against LDL-induced monocyte chemotactic activity by HDL from apo E null mice given oral peptides; type: in vivo, mouse
Text: as §1, with “FIG. 4 illustrates protection against LDL-induced monocyte chemotactic activity by HDL from apo E null mice given oral peptides. The” for “The”
After 24 hrs blood was collected, plasma fractionated by FPLC and fractions containing LDL (designated as mLDL for murine LDL) and fractions containing HDL (designated as mHDL) were separately pooled and HDL protective capacity against LDL oxidation as determined by LDL-induced monocyte chemotactic activity was determined. For the assay controls the culture wells received no lipoproteins (no additions), mLDL alone (at 200 μg cholesterol/ml), or mLDL+ standard normal human HDL (designated as Cont. h HDL, at 350 μg HDL cholesterol/ml).
For testing the murine HDL, mLDL together with murine HDL (+F mHDL or +J mHDL) were added to artery wall cell cultures. […] The murine HDL was used at 100µg cholesterol/ml.

[8] = Association with pre-beta HDL / HDL and clearance from the circulation after an oral dose; details: mouse, in vivo
human LDL = experiment: Treating human LDL in vitro: removal of seeding molecules
Text: (§2) We discovered that normal HDL inhibits three steps in the formation of mildly oxidized LDL. […] These seeding molecules were required for cocultures of human artery wall cells to be able to oxidize LDL and for the LDL to induce the artery wall cells to produce monocyte chemotactic activity.

human volunteers = experiment: LDL isolated after infusion of apo A-I into humans: oxidation by human artery wall cells; type: in vivo
Text: as §2

mice = experiment: LDL isolated after injection of apo A-I into mice: oxidation by human artery wall cells; type: in vivo, mouse
Text: as §2

CC(C)c1c(C(=O)Nc2ccccc2)c(-c2ccccc2)c(-c2ccc(F)cc2)n1CC[C@@H](O)C[C@@H](O)CC(=O)O [atorvastatin, reference compound]
HDL function, statin alone (ApoE null mice [1]): did not improve HDL function

Ac-D-W-F-K-A-F-Y-D-K-V-A-E-K-F-K-E-A-F-NH2 (Ac-DWFKAFYDKVAEKFKEAF-NH2) [Peptide L-4F]
Bruch's membrane structure, electron microscopy of treated eyes (C57Bl/6J-apoE null mice; magnification 5,000×): regular and uniform Bruch's membrane structure
lipid droplets in RPE cells, electron microscopy of treated eyes (C57Bl/6J-apoE null mice; magnification 5,000×): none of the RPE cells showed lipid droplets
translucent lipid vacuoles in Bruch's membrane, electron microscopy of a treated eye (C57Bl/6J-apoE null mice; magnification 20,000×): no translucent lipid vacuoles shown
Bruch's membrane and RPE morphology and lipid content of treated eyes compared to untreated eyes (EM) (C57Bl/6J-apoE null mice; single intravitreal 3 μl of 400 μg/ml, 21 days, EM of 2 mice): significant improvement in Bruch's membrane and RPE morphology as well as lipid content

Ac-D-W-L-K-A-F-Y-D-K-V-F-E-K-F-K-E-F-F-NH2 (Ac-DWLKAFYDKVFEKFKEFF-NH2) [Peptide 5F]
LDL from PBS-injected mice compared with LDL from peptide-injected mice: oxidation and induction of monocyte chemotactic activity [2]: more readily oxidized and more readily induced monocyte chemotactic activity than LDL taken from mice fed the same diet but injected with 20µg daily of peptide 5F

Ac-LLEQLNEQFNWVSRLANLTQGE-NH2 [D-J336]
activity of mouse HDL in preventing control LDL from inducing artery wall cells to produce monocyte chemotactic activity (LDL receptor null mice): as active as 350 μg/ml of control human HDL
potency in causing HDL to inhibit oxidation of PAPC by HPODE in a human artery wall co-culture (monocyte chemotactic activity) (ApoE null mice [3]): as potent as D-4F
in vitro concentration that prevents LDL-induced monocyte chemotactic activity by human artery wall cells, relative to the concentration required for the D-4F peptide [4]: 10 to 25 times less
potency in rendering LDL from apo E null mice resistant to oxidation by human artery wall cells (induction of monocyte chemotactic activity) (ApoE null mice [5]): slightly more potent than D-4F
potency in increasing the paraoxonase activity of apo E null mice (PON1): at least as potent as D-4F
potency in preventing LDL oxidation by artery wall cells in vitro, compared with D-4F [6]: 10-25 times more potent
activity of murine HDL against LDL-induced monocyte chemotactic activity (ApoE null mice [7]; ApoE null mice, peptide in drinking water 24 hrs, murine HDL at 100 μg/ml): as active as 350µg/ml of normal human HDL
potency in enhancing HDL protective capacity in apo E null mice (ApoE null mice [7]; added to the drinking water, 24 hrs): as potent as D-4F

Ac-LVGRQLEEFL-NH2 [D-[113-122]apoJ]
association with pre-beta HDL and HDL [8]: slowly associates with pre-beta HDL and to a lesser extent with HDL
time it remains associated with the HDL fractions (pre-beta HDL, HDL) [8]: at least 36 hours

apo A-I: apolipoprotein A-I, the major protein of HDL
removal of seeding molecules from human LDL in vitro (human LDL): removed seeding molecules from the LDL that included HPODE and HPETE
oxidation of LDL isolated after infusion, by human artery wall cells, and induction of monocyte chemotactic activity (human volunteers): resistant to oxidation by human artery wall cells and did not induce monocyte chemotactic activity
oxidation of LDL isolated after injection, by human artery wall cells, and induction of monocyte chemotactic activity (mice): resistant to oxidation by human artery wall cells and did not induce monocyte chemotactic activity
